Assays:
[1] = biological target: T1, Eukaryotic elongation factor 2 kinase (Homo sapiens) (UniProt O00418); assay: Inhibition of EF2K (unknown origin) at 1 uM incubated for 30 mins in presence of [gamma-33P]ATP by multidrop micro reagent based assay relative to control
T1 sequence (whole entry): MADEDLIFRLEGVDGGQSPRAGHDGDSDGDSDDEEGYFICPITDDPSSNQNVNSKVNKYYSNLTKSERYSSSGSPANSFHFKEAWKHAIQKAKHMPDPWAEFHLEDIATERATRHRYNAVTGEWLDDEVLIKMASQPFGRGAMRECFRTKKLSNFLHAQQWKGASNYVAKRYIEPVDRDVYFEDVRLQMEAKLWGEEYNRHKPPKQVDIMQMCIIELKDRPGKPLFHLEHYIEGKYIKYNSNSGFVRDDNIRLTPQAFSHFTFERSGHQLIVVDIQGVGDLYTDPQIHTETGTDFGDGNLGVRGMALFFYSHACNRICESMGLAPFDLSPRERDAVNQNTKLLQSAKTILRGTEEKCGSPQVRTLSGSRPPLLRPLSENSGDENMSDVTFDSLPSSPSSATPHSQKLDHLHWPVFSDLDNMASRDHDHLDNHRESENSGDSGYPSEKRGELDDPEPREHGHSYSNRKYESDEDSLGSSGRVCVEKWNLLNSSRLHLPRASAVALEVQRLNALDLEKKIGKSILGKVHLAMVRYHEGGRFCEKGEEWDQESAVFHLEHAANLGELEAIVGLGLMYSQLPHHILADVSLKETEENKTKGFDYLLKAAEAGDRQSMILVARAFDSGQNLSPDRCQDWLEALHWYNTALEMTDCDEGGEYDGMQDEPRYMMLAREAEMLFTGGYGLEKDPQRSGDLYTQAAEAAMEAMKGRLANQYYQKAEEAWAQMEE

[2] = biological target: T2, Inhibitor of nuclear factor kappa-B kinase subunit epsilon (Homo sapiens) (UniProt Q14164); assay: Inhibition of IKKepsilon (unknown origin) at 1 uM incubated for 30 mins in presence of [gamma-33P]ATP by multidrop micro reagent based assay relative to control
T2 sequence (whole entry): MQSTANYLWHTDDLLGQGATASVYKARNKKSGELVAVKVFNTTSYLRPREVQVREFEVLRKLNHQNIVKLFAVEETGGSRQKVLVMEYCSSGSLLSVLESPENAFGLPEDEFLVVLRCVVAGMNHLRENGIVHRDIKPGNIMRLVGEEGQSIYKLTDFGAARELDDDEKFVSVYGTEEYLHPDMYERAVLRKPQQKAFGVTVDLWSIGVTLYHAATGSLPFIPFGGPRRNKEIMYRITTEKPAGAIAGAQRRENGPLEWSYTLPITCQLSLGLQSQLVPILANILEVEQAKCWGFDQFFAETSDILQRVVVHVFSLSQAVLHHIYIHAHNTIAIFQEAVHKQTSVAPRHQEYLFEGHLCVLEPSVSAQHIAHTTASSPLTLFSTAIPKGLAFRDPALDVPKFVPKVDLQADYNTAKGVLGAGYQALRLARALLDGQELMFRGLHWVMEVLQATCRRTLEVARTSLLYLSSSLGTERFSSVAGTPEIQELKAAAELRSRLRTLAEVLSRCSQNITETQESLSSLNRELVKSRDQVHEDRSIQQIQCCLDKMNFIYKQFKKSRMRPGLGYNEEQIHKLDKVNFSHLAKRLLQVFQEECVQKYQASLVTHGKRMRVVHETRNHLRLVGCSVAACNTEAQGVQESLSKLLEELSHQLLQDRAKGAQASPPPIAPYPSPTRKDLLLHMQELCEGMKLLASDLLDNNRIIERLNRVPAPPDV

[3] = biological target: Serine/threonine-protein kinase Nek6 (Homo sapiens) (UniProt Q9HC98); assay: Inhibition of NEK6 (unknown origin) at 1 uM incubated for 30 mins in presence of [gamma-33P]ATP by multidrop micro reagent based assay relative to control; values are per cent of control
Chain of Serine/threonine-protein kinase Nek6 (Homo sapiens) (Q9HC98 whole entry): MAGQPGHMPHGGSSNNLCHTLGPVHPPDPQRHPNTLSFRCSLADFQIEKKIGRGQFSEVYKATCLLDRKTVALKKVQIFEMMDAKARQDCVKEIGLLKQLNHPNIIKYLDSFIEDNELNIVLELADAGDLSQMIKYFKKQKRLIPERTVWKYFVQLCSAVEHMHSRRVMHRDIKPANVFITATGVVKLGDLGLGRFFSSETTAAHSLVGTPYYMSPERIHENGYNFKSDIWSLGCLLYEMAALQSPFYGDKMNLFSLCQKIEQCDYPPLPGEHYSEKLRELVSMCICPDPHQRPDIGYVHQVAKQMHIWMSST

[4] = biological target: Serine/threonine-protein kinase PAK 5 (Homo sapiens) (UniProt Q9P286); assay: Inhibition of PAK5 (unknown origin) at 1 uM incubated for 30 mins in presence of [gamma-33P]ATP by multidrop micro reagent based assay relative to control; values are per cent of control
Chain of Serine/threonine-protein kinase PAK 5 (Homo sapiens) (Q9P286 whole entry, looked up): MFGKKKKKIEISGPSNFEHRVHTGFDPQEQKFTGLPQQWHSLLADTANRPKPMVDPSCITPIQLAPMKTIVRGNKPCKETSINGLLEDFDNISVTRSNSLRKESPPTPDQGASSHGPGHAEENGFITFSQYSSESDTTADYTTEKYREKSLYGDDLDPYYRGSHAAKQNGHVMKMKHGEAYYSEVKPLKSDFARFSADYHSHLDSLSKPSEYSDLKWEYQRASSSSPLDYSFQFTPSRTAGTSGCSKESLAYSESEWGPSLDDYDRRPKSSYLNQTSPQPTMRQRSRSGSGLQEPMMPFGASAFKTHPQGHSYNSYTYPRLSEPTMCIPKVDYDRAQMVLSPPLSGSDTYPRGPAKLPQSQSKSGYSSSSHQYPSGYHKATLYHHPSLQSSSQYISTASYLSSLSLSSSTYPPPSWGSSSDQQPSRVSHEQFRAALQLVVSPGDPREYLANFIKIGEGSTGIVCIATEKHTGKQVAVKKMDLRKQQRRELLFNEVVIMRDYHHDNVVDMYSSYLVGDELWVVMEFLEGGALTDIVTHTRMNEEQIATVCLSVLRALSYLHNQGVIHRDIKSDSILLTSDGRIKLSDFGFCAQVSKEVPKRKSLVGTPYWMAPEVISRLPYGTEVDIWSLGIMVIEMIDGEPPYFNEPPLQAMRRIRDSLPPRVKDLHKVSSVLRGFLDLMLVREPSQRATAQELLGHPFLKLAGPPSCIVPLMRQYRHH

[5] = biological target: MAP/microtubule affinity-regulating kinase 3 (Homo sapiens) (UniProt P27448); assay: Inhibition of MARK3 (unknown origin) at 1 uM incubated for 30 mins in presence of [gamma-33P]ATP by multidrop micro reagent based assay relative to control; values are per cent of control
Chain of MAP/microtubule affinity-regulating kinase 3 (Homo sapiens) (P27448 whole entry, looked up): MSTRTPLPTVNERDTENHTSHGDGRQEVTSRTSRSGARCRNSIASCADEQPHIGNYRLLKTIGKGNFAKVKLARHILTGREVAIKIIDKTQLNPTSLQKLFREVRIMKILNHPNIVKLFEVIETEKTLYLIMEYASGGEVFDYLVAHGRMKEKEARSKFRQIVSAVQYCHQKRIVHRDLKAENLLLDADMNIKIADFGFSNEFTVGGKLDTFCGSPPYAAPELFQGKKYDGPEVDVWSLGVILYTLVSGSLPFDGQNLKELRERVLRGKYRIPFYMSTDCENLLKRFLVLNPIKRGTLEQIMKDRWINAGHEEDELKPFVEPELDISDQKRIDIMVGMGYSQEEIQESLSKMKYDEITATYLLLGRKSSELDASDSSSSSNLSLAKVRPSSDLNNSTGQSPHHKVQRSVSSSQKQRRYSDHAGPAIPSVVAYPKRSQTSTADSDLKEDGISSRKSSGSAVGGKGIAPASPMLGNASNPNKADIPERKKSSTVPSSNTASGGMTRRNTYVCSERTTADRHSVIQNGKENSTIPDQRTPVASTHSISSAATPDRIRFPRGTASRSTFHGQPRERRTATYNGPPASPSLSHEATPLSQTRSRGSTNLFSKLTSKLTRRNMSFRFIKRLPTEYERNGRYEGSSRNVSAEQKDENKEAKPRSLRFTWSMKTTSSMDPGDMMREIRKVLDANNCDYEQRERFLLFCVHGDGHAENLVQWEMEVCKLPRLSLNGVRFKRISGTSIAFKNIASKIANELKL

[6] = biological target: T3, Inhibitor of nuclear factor kappa-B kinase subunit beta (Homo sapiens) (UniProt O14920); assay: Inhibition of IKKbeta (unknown origin) at 1 uM incubated for 30 mins in presence of [gamma-33P]ATP by multidrop micro reagent based assay relative to control; values are per cent of control
T3 sequence (whole entry): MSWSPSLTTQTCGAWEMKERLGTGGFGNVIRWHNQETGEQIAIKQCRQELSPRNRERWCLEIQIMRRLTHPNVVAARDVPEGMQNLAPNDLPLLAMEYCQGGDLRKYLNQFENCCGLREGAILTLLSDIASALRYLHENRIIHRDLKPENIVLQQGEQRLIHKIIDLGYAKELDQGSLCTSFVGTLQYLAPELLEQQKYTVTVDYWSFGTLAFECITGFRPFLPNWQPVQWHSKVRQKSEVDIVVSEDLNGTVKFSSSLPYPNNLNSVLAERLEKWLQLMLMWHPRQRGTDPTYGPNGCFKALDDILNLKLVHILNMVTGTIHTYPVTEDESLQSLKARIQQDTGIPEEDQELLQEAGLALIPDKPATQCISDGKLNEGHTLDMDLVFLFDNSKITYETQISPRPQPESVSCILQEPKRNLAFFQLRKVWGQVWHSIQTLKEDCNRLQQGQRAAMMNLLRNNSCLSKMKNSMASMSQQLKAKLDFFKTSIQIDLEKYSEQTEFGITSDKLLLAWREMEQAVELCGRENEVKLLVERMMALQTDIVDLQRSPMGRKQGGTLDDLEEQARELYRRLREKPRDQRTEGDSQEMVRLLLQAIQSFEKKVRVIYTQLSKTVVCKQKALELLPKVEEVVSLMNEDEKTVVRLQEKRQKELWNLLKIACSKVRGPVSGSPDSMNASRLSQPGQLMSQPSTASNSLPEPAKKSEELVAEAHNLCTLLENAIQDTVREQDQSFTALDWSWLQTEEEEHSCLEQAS

[7] = biological target: RAC-alpha serine/threonine-protein kinase (Homo sapiens) (UniProt P31749); assay: Inhibition of PKBalpha (unknown origin) at 1 uM incubated for 30 mins in presence of [gamma-33P]ATP by multidrop micro reagent based assay relative to control; values are per cent of control
Chain of RAC-alpha serine/threonine-protein kinase (Homo sapiens) (P31749 whole entry): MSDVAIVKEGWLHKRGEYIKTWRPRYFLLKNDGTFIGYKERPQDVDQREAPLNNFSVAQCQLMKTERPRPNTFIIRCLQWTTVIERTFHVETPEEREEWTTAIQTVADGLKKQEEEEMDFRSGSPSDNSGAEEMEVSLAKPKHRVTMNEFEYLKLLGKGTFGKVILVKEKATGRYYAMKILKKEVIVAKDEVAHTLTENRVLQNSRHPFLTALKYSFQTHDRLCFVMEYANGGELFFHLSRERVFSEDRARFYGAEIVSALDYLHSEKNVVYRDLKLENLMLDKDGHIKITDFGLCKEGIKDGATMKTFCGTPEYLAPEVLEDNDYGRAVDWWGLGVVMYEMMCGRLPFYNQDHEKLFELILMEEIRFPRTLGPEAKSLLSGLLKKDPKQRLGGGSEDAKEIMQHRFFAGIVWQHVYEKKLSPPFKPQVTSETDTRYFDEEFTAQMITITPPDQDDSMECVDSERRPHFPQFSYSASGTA

CC1=C(C(=O)Nc2cc3cn[nH]c3cc2F)C(c2ccc(C(F)(F)F)cc2)CC(=O)N1 (stereo not drawn)
residual activity [1]: 99%
residual activity [2]: 109%
residual activity [3]: 87%
residual activity [4]: 107%
residual activity [5]: 98%
residual activity [6]: 97%
residual activity [7]: 72%

Cc1cncc2cccc(S(=O)(=O)N3CCCNC[C@@H]3C)c12
residual activity [1]: 99%
residual activity [2]: 80%
residual activity [3]: 99%
residual activity [4]: 100%
residual activity [5]: 56%
residual activity [6]: 100%
residual activity [7]: 64%

CCN(CC)CCNC(=O)c1c(C)[nH]c(/C=C2\C(=O)Nc3ccc(F)cc32)c1C
residual activity [2]: 63%
residual activity [7]: 73%

CCn1c(-c2nonc2N)nc2cnc(Oc3cccc(NC(=O)c4ccc(OCCN5CCOCC5)cc4)c3)cc21 [GSK-269962A]
residual activity [1]: 113%
residual activity [2]: 66%
residual activity [3]: 82%
residual activity [4]: 102%
residual activity [5]: 67%
residual activity [6]: 83%
residual activity [7]: 26%
